Data as given in publication PMC2114115 (The Journal of Cell Biology, 1986).

What was measured:
GH4C1 cells [1] = test: Acid/salt extraction: cellular distribution of receptor-bound 125I-EGF; format: cell-based, rat; details: pulse-chase at 37 degrees C after binding 5 h at 4C, 80 pM (Fig. 2)
GH4C1 cells [2] = test: Release and degradation of cell-bound 125I-EGF; format: cell-based, rat; details: 37C; for half-time for the release of 125I-tyrosine derived from receptor-bound 125I-EGF: Fig. 6, control cells or 0.1 mM chloroquine, 59 pM, 90 min binding; for subsequent rate of release of 125I-tyrosine from 125I-EGF: chloroquine 0.1 mM, leupeptin 0.1 mg/ml
GH4C1 cells [3] = test: Release and degradation of cell-bound [125I-Tyr1]SRIF; format: cell-based, rat; details: for effect on receptor-mediated degradation of [125I-Tyr1]SRIF: Table V conditions, compound in dissociation medium, 60 min at 37C; for rate of dissociation or degradation of prebound [125I-Tyr1]SRIF / half-time of release of radioactivity after [125I-Tyr1]SRIF binding: 37C; for rate of dissociation or degradation of prebound [125I-Tyr1]SRIF: chloroquine 0.1 mM, leupeptin 0.1 mg/ml; for half-time of release of radioactivity after [125I-Tyr1]SRIF binding: Fig. 6, absence or presence of 0.1 mM chloroquine, or 0.1 mg/ml leupeptin, 35 pM, 60 min binding
[4] = biological target: EGF receptors of GH4C1 cells (Rattus norvegicus, UniProt G3V6K6); test: Specific binding of 125I-EGF to GH4C1 cells; details: for amount of cell-associated 125I-EGF: Fig. 5, prolonged 37C binding incubations, chloroquine 0.1 mM, leupeptin 0.1 mg/ml
[5] = tested on: SRIF receptors of GH4C1 cells; test: Specific binding of [125I-Tyr1]SRIF to GH4C1 cells; set-up: species or system rat; details: for cellular accumulation of total or acid-resistant [125I-Tyr1]SRIF: ammonium chloride 20 mM, leupeptin 0.1 mg/ml; for [125I-Tyr1]SRIF bound, Total: Table III, control, leupeptin 0.1 mg/ml or chloroquine 0.1 mM
GH4C1 cells [6] = details: 37C; cited from earlier work
GH4C1 cell membranes = test: Binding, dissociation and degradation of [125I-Tyr1]SRIF with cell membranes; set-up: species or system rat; details: Table IV; dissociation incubation 4 h at 37C; without or with 100 nM SRIF
GH4C1 cells [7] = details: Koch and Schonbrunn, unpublished observations; cited from earlier work
[8] = Table V Exp. 2, control or a2-macroglobulin 50 ug/ml

**Q.** Which “half-time of transfer from acid-sensitive to acid-resistant compartment” value (GH4C1 cells [1]) does the source give for “125I-EGF: radioiodinated epidermal growth factor, chloramine T iodination” here?
**A.** Its value is 2 min.

**Q.** What about the “half-time for the release of 125I-tyrosine derived from receptor-bound 125I-EGF” value (GH4C1 cells [2]) of the same molecule?
**A.** Its value is 45 min.

**Q.** For `O=S(=O)(F)Cc1ccccc1` [PMSF, phenylmethylsulfonyl fluoride], which “effect on receptor-mediated degradation of [125I-Tyr1]SRIF” value (shortened to “effect on receptor-mediated degradation”) (GH4C1 cells [3]) is on record?
**A.** Its value is “same small effect”.

**Q.** For `CC(C)C[C@H](NP(=O)(O)O[C@@H]1O[C@@H](C)[C@H](O)[C@@H](O)[C@H]1O)C(=O)N[C@@H](Cc1c[nH]c2ccccc12)C(=O)O` [Phosphoramidon, phosphoramidon], which “effect on receptor-mediated degradation” value (GH4C1 cells [3]) is on record?
**A.** The value was “substantially inhibited”.

**Q.** For `Cc1ccc(S(=O)(=O)NC(CCCCN)C(=O)CCl)cc1` [TLCK, Na-p-tosyl-L-lysine chloromethyl ketone], which “effect on receptor-mediated degradation” value (GH4C1 cells [3]) is on record?
**A.** Its value is “same small effect”.

**Q.** With `Cc1ccc(S(=O)(=O)N[C@@H](Cc2ccccc2)C(=O)CCl)cc1` [TPCK, L-l-tosylamide 2-phenylethyl chloromethyl ketone] as the molecule, how does the “effect on receptor-mediated degradation” value (GH4C1 cells [3]) read?
**A.** Its value is “substantially inhibited”.

**Q.** What does the source list for `Cl.N` [ammonium chloride]?
**A.** amount of 125I-EGF bound to cells ([4]; 20 mM ammonium chloride, 4 h at 37C): 210 % of untreated controls; [125I-Tyr1]SRIF binding ([5]; 20 mM ammonium chloride, 4 h at 37C, same experiment): unaffected; cellular accumulation of total or acid-resistant [125I-Tyr1]SRIF ([5]; 37C, chloroquine 0.1 mM): none of these inhibitors increased

**Q.** With `O=C(O)c1cc[c]([Hg][Cl])cc1` [chloromercuribenzoate] as the molecule, how does the “effect on receptor-mediated degradation” value (GH4C1 cells [3]) read?
**A.** Its value is “substantially inhibited”.

**Q.** With `CCN(CC)CCCC(C)Nc1ccnc2cc(Cl)ccc12` (centres unmarked) [chloroquine] as the molecule, how does the “amount of cell-associated 125I-EGF” value [4] read?
**A.** The value was “increased”.

**Q.** And the “rate of dissociation or degradation of prebound [125I-Tyr1]SRIF” value (GH4C1 cells [3])?
**A.** The value was “did not alter”.

**Q.** What about the “half-time of release of radioactivity after [125I-Tyr1]SRIF binding” value (GH4C1 cells [3]) of the same molecule?
**A.** The value was 41 min.

**Q.** What about the “subsequent rate of release of 125I-tyrosine from 125I-EGF” value (GH4C1 cells [2]) of the same molecule?
**A.** The value was “decreased”.

**Q.** And the “half-time for the release of 125I-tyrosine derived from receptor-bound 125I-EGF” value (GH4C1 cells [2])?
**A.** The value was 150 min.

**Q.** What about the “cellular accumulation of total or acid-resistant [125I-Tyr1]SRIF” value ([5]; 37C, chloroquine 0.1 mM) of the same molecule?
**A.** Its value is “none of these inhibitors increased”.

**Q.** And the “[125I-Tyr1]SRIF bound, Total” value ([5]; chase 30 min at 37C)?
**A.** Its value is 3,491 cpm.

**Q.** What about the “[125I-Tyr1]SRIF bound, Total” value ([5]; chase 60 min at 37C) of the same molecule?
**A.** The value was 1,725 cpm.

**Q.** And the “decrease in [125I-Tyr1]SRIF binding” value ([5]; chloroquine 0.1 mM, 37C, all times)?
**A.** Its value is 50%.

**Q.** Which “effect on receptor-mediated degradation” value (GH4C1 cells [3]) does the source give for `NC(=O)CI` [iodoacetamide] here?
**A.** The value was “substantially inhibited”.

**Q.** With `CC(=O)N[C@@H](CC(C)C)C(=O)N[C@@H](CC(C)C)C(=O)N[C@H](C=O)CCCNC(=N)N` [leupeptin] as the molecule, how does the “amount of cell-associated 125I-EGF” value [4] read?
**A.** The value was “increased”.

**Q.** What about the “rate of dissociation or degradation of prebound [125I-Tyr1]SRIF” value (GH4C1 cells [3]) of the same molecule?
**A.** The value was “did not alter”.

**Q.** And the “half-time of release of radioactivity after [125I-Tyr1]SRIF binding” value (GH4C1 cells [3])?
**A.** The value was 48 min.

**Q.** And the “subsequent rate of release of 125I-tyrosine from 125I-EGF” value (GH4C1 cells [2])?
**A.** The value was “decreased”.

**Q.** What about the “cellular accumulation of total or acid-resistant [125I-Tyr1]SRIF” value ([5]; 37C, chloroquine 0.1 mM) of the same molecule?
**A.** The value was “none of these inhibitors increased”.

**Q.** And the “[125I-Tyr1]SRIF bound, Total” value ([5]; chase 30 min at 37C)?
**A.** The value was 5,537 cpm.

**Q.** What about the “[125I-Tyr1]SRIF bound, Total” value ([5]; chase 60 min at 37C) of the same molecule?
**A.** The value was 3,385 cpm.

**Q.** For `COc1ccc(C[C@H](N)C(=O)N[C@H]2[C@@H](O)[C@H](n3cnc4c(N(C)C)ncnc43)O[C@@H]2CO)cc1` [puromycin], which “effect on receptor-mediated degradation” value (GH4C1 cells [3]) is on record?
**A.** Its value is “same small effect”.

**Q.** With a2-macroglobulin as the molecule, how does the 125I released (GH4C1 cells [3]; [8]) read?
**A.** Its 125I released is 2,217 cpm.

**Q.** And the “% Intact [125I-Tyr1]SRIF” value (GH4C1 cells [3]; [8])?
**A.** The value was 64%.

**Q.** What about the “effect on receptor-mediated degradation” value (GH4C1 cells [3]) of the same molecule?
**A.** Its value is “same small effect”.

**Q.** With bacitracin as the molecule, how does the “effect on receptor-mediated degradation” value (GH4C1 cells [3]) read?
**A.** Its value is “same small effect”.

**Q.** With “epidermal growth factor (NSYPGCPSSYDGYCLNGGVCMHIESLDSYTCNCVIGYSGDRCQTRDLRWWELR; not fully specified; Epidermal growth factor; UniProt P01132 977-1029, looked up) [EGF]” as the molecule, how does the “time for transformation from acid-extractable to acid-resistant state” value (GH4C1 cells [6]) read?
**A.** The value was no more than 10 min.

**Q.** With somatostatin [SRIF] as the molecule, how does the 125I bound (GH4C1 cell membranes) read?
**A.** Its 125I bound is 9,695 cpm.

**Q.** And the 125I dissociated (GH4C1 cell membranes)?
**A.** The 125I dissociated was 10,791 cpm.

**Q.** And the “time to maximal inhibitory effect on hormone secretion” value (GH4C1 cells [7])?
**A.** The value was no more than 5 min.

**Q.** What about the “% Intact [125I-Tyr1]SRIF” value (GH4C1 cells [3]; Table V Exp. 1, SRIF 0.1 mM in dissociation medium) of the same molecule?
**A.** The value was 65%.

**Q.** And the “effect on receptor-mediated degradation” value (GH4C1 cells [3])?
**A.** The value was “only a slight effect”.
